Experimental data from US20190328721A1, “METHOD OF ACTIVATING DENDRITIC CELLS” (KOREA INSTITUTE OF SCIENCE AND TECHNOLOGY, priority 2018, published 2019).

Key:
[1] = tested on: bone marrow-derived macrophages (BMDMs); assay: Phagocytosis of cancer cells by bone marrow-derived macrophages in vitro; format: cell-based, mice
Experimental: (§1) Specifically, the present inventors prepared bone marrow-derived macrophages (BMDMs) differentiated from excised bone marrow of mice using M-CSF and bone marrow-derived dendritic cells (BMDCs) differentiated from excised bone marrow using Flt3L. The degree of differentiation was confirmed by flow cytometry analysis using antibodies specifically binding to F4/80 (BMDM marker) and CD11c (BMDC marker), respectively (FIGS. 2A and 2B).
(§2) The prepared BMDMs and BMDCs were stained with 1 μM CellTracker Deep Red (Thermo Fisher Scientific, USA). 30 μM of Y27632 (Abcam, USA) or 30 μM of fasudil (Selleck Chemicals, USA) was added to each of 15×10^4 cells/ml of the stained macrophages and dendritic cells and incubated at 37° C. for 1 hour. As a negative control, macrophages or dendritic cells that were not incubated with Y27632 and fasudil were used.
(§3) Bone marrow-derived macrophages or dendritic cells prepared in RPMI medium and cancer cell lines stained with 1 μM CellTracker CMFDA (Thermo Fisher Scientific, USA) were co-cultured at about 37° C. for about 2 hours. CT26.CL25, a colon cancer cell line, and B16F10-OVA, a melanoma cell line, were used as the cancer cells.
(§4) Thereafter, the percentage of cancer cells was measured by flow cytometry, and the phagocytosis ratio of macrophages and dendritic cells against cancer cells was calculated. The results are shown in FIGS. 2C to 2F (left: cancer cell line CT26.CL25, right: cancer cell line B16F10-OVA).
(§5) In order to more accurately analyze the phagocytosis of macrophages and dendritic cells against cancer cells according to the treatment of the ROCK inhibitor, the present inventors analyzed phagocytosis of the BMDMs and BMDCs against CT26.CL25 colon cancer cells using the pHrodo-SE dye, which changes in fluorescence depending on pH. When […], the pH of the cancer cells decreased and became red. When treated with Y27632 as described above for the above-mentioned phagocytosis response, the phagocytic activities of both the BMDMs and BMDCs against cancer cells were improved.
(§6) The present inventors performed an experiment to confirm how long the phagocytosis of BMDMs and BMDCs against cancer cells due to the ROCK inhibitor is maintained. Specifically, BMDMs and BMDCs were pretreated with Y27632 for 1 hour, then Y27632 was removed, and immediately after 30 minutes, 1 hour, 2 hours, or 4 hours, the phagocytosis against CT26.CL25 and B16F10-Ova was measured using a flow cytometer. The other experimental conditions were the same as in Example 1-1.
(§7) In order to confirm whether the ROCK inhibitor increases phagocytosis against cancer cells by acting on phagocytic cells (BMDMs or BMDCs) themselves, Y27632 was used to pretreat the phagocytic cells or cancer cells for 1 hour, and the phagocytic activity was analyzed using the same procedure described in Example 1-1.
The present inventors identified through the above-mentioned results that Y27632 promotes phagocytic cells against cancer cells by inhibiting ROCK in the phagocytic cells. In order to elucidate a more detailed mechanism related to the increase of phagocytic activity by ROCK inhibitors, the present inventors analyzed phagocytosis of the phagocytic cells against cancer cells using blebbistatin (Sigma-Aldrich, USA), which can inhibit the movement of myosin light chain, which exist downstream of ROCK signaling pathway, according to the method described in Example 1-1.
Bone marrow-derived macrophages (BMDMs) treated with 30 μM of fasudil were co-cultured with B16F10-Ova malignant melanoma cells for 1 hour and the phagocytic activity of the BMDMs against apoptotic cancer cells was analyzed by flow cytometry analysis. In order to induce immunogenic apoptosis, 2.5 μM mitoxantrone (Sigma-Aldrich, USA) was administered with B16F10-Ova cells stained with CellTracker Deep Red (Thermo Fisher Scientific, USA) for 4 hours. […]

[2] = tested on: bone marrow-derived dendritic cells (BMDCs); assay: Phagocytosis of cancer cells by bone marrow-derived dendritic cells in vitro; format: cell-based, mice; conditions: method of Example 1-1; CT26.CL25 and B16F10-Ova
Experimental: as §1, §2, §3, §4, §5, §6
as §7, with “1-1. […]” for “1-1.”
Phagocytic activity of bone marrow-derived dendritic cells (BMDCs) differentiated from bone marrow cells against cancer cells was analyzed by treating the BMDCs with ROCK inhibitor Y27632 (30 μM) for 1 hour and then co-cultivating with CT26.CL25 colon cancer cells pretreated with 25 μM of doxorubicin for 24 hours or B16F10-Ova malignant melanoma cells treated with 30 μM of Y27632 for 1 hour and then treated with 2.5 μM doxorubicin (Sigma-Aldrich, USA) for 24 hours by pHrodo SE (Thermo Fisher Scientific, USA) staining (BMDC:Dox-treated B16F10-Ova=1:1). As shown in FIGS. 16A to 16D, it was confirmed that the phagocytic activity of BMDCs induced by doxorubicin were increased in the Y27632-treated group compared to the control group (FIGS. 16A to 16D). […]

dendritic cells = assay: Flow cytometry of dendritic cells from B16F10-Ova-bearing mice (maturation, subsets, cross presentation); format: in vivo; conditions: tumor-draining lymph nodes
Experimental: To confirm the effect of the ROCK inhibitor Y27632 on the maturation process of dendritic cells, the inventors administered Y27362 to B16F10-Ova-bearing cancer model animals according to the same administration schedule as in Example 2-1, and the expression of CD40 and CD86, which are dendritic cell maturation markers, was analyzed by flow cytometry.
Recently, it has been shown that CD103 (corresponding to CD141 in humans)-positive dendritic cells (CD103 DC) play an important role in cancer cell phagocytosis and T cell anticancer immunity among dendritic cells (Broz et al., Cancer Cell, 26 (5): 638-652, 2014). Therefore, in order to analyze the effect of the ROCK inhibitor on CD103 DC, Y27632 was administered to B16F10-Ova-bearing cancer model mice according to the administration schedule described in the above Example 2-1, tumor tissues and tumor-draining lymph nodes were excised, and then flow cytometry analysis was performed using antibodies specifically binding to dendritic cell markers (CD11b, CD103 and CD8). It was confirmed that the ratio of CD103 DC was increased by Y27632 in both the tumor-draining lymph nodes (FIG. 15A) and the tumor tissues (FIG. 15B). On the other hand, in the case of CD11b-positive and CD8-positive dendritic cells, no change due to administration of Y27632 was observed.
The present inventors analyzed cross presentation activity which is one of functions of dendritic cells via flow cytometry analysis using an antibody capable of detecting a cancer antigen (H-2K^b-Ova) capable of activating T cells, through flow cytometry analysis using an antibody (H-2K^b monoclonal antibody, Invitrogen, USA). It was confirmed that the cross presentation of CD103 DC was increased by Y27632 in both tumor-draining lymph nodes (FIG. 15C) and tumor tissues (FIG. 15D).
Further, the present inventors analyzed CD40, which is one of the markers of dendritic cell function capable of activating T cells and a DC maturation marker of dendritic cells, by flow cytometry analysis using anti-CD40 antibodies. As shown in FIGS. 15E and 15F, it was confirmed that the maturation of CD103 DC was increased by Y27632 in the tumor-draining lymph nodes.
The present inventors analyzed a series of immunological induction processes occurring after the phagocytosis against cancer cells or cancer-specific antigens in order to analyze the mechanism of the combination therapy for the anti-cancer immune response. Specifically, in order to confirm the effect of the combination therapy on the dendritic cell maturation, Y27632 and doxorubicin were administered to B16F10-Ova-bearing cancer model mice as described above, and then tumor-draining lymph nodes were isolated and the expression of CD40 and CD86, which are dendritic cell maturation markers, was analyzed by flow cytometry analysis.
Further, in order to confirm the effect of the combined treatment on the cross presentation process to the dendritic cells, the present inventors administered Y27632 and doxorubicin to B16F10-Ova-bearing cancer model mice as described above, isolated the tumor-draining lymph nodes, and then cross presentation activity, which is one of functions of dendritic cells, was analyzed via flow cytometry analysis using an antibody capable of detect a cancer antigen (H-2K^b-Ova) capable of activating T cells, through flow cytometry analysis using an antibody (H-2K^b monoclonal antibody, Invitrogen, USA).
The present inventors then investigated the effect of the combination of the drugs on the maturation process of dendritic cells. Specifically, the tumor-draining lymph nodes were isolated after administration of Y27632 and/or cisplatin in the B16F10-Ova-bearing cancer model, and the expression level of CD40 and CD86, the dendritic cell maturation markers, was analyzed by flow cytometry. As shown in FIG. 19C and 19D, there was no influence on the maturation of dendritic cells when Y27632 alone, cisplatin alone, or the combination of the two were administered (FIGS. 19C and 19D). […]

MMTV/Neu mice tumors = assay: Spontaneous cancer development model; format: in vivo; conditions: anti-CD8 fluorescence immunohistochemistry
Experimental: The survival rate was recorded over up to 100 days. When the size of tumor was over 2,500 mm^3, the animal was euthanized (FIG. 20C).
Specifically, fluorescence immunohistochemical analysis was performed using anti-CD8 antibodies in the cancer tissues after the end of the experiment.
Accordingly, the present inventors investigated whether the combination of the drugs can increase the anti-cancer immunity even in the spontaneous cancer development model. […] After completion of the experiment, the present inventors isolated the spleen cells and treated with peptide against rat-Neu, an antigen expressed in the cancer of the spontaneous cancer development model, and after 48 hours, the culture supernatant was collected and IFN-γ was quantified using an ELISA kit (R&D Systems, Inc, USA).

[3] = tested on: bone marrow-derived dendritic cells (BMDC); assay: Cross presentation of H-2Kb-Ova by BMDCs in vitro; format: cell-based, mice; conditions: Y27632 30 μM, 1 hour on BMDCs; cancer cells doxorubicin treated or untreated
Experimental: Furthermore, the inventors investigated whether the cross presentation of dendritic cells was promoted by the combination treatment of doxorubicin and Y27632. To this end, the present inventors used 30 μM of Y27632 to pretreat bone marrow-derived dendritic cells (BMDC) stained with CellTracker CMFDA (Thermo Fisher Scientific, USA) for 1 hour, followed by treatment with doxorubicin treated B16F10-Ova cells or doxorubicin untreated B16F10-Ova cells. After the co-culture, floating cancer cells were removed by withdrawing supernatant. Cross presentation activity, which is one of functions of dendritic cells, was analyzed via flow cytometry analysis using an antibody capable of detect a cancer antigen (H-2K^b-Ova) capable of activating T cells, through flow cytometry analysis using an antibody (H-2K^b monoclonal antibody, Invitrogen, USA).

B16F10-Ova = B16F10-Ova tumor model, Y27632 combined with a chemotherapeutic; format: in vivo, mice; conditions: doxorubicin 5 mg/kg, Y27632 10 mg/kg
Experimental: Specifically, tumor suppression was examined by administering 5 mg/kg of doxorubicin and 10 mg/kg of Y27632 alone or in combination to B16F10-Ova-bearing tumor model mice prepared as in Example 2-1. Doxorubicin was administered three times at intervals of 3 days from the 8th day after the injection of cancer cells, and Y27632 was administered at a dose of 10 mg/kg continuously for two consecutive days via intravenous injection followed by a day of rest as a cycle, followed by 3 cycles of 3-day intervals (FIG. 18A). The mice were sacrificed on the 20th day after the injection of cancer cells, the tumor tissue was excised, and ex vivo images were taken and the tumor tissues were weighed. Before the sacrifice of the mice, the tumor volumes over time were calculated as described above using calipers at intervals of 3 days from the 8th day after the injection of the cancer cells.
In order to confirm whether CD8^+ T cells infiltrates into tumor tissues, tumor tissues excised from an experimental animal were sectioned and subjected to fluorescence immunohistochemistry using anti-CD8 antibodies.
First, to determine the cisplatin therapeutic concentration, a B16F10-Ova tumor model was constructed in a nude mouse lacking T cell immunity and then an experiment was conducted to confirm the concentration of cisplatin having an anticancer effect similar to that of doxorubicin at 5 mg/kg. […] Thus, in order to evaluate the therapeutic effect of cisplatin and the ROCK inhibitor Y27632 in the B16F10-Ova-bearing tumor model, 3 mg/kg of cisplatin was administered according to the administration schedule shown in FIG. 18A.

CT26 cancer cells = assay: CT26 tumor model; format: in vivo, mice; conditions: fasudil 20 mg/kg; Y27632 10 mg/kg
Experimental: The same procedure as described above was repeated except that CT26 was used instead of the CT26.CL25 colon cancer cell line and fasudil (Selleck Chemicals, USA) at 20 mg/kg of body weight or Y27632 at 10 mg/kg of body weight was administered.

B16F10 cancer cells = assay: B16F10 tumor model, ripasudil, PDT and anti-PD-L1 antibodies; set-up: species or system C57BL/6 wild-type mice; conditions: mouse, in vivo
[4] = tested on: bone marrow-derived dendritic cells (BMDCs); assay: Phagocytosis of cancer cells by bone marrow-derived dendritic cells in vitro; format: cell-based, mice; conditions: 30 μM, 1 hour; B16F10; co-cultivated 30 min
[5] = doxorubicin 5 mg/kg, Y27632 10 mg/kg

With `Cc1ccc2c(c1)C(=O)C1(O)CCN(c3ccccc3)C1=N2` (stereo not drawn) [blebbistatin] the “phagocytic action of phagocytic cells against cancer cells (BMDMs)” value ([1]; method of Example 1-1, CT26.CL25 and B16F10-Ova) was “significantly enhance” and the “phagocytic action of phagocytic cells against cancer cells (BMDCs)” value [2] was “significantly enhance”.

In the case of `N.N.[Cl][Pt][Cl]` [cisplatin], the “cross-presentation function (H-2Kb-Ova) of dendritic cells” value (dendritic cells; cisplatin study) was “no effect” and the “maturation of dendritic cells (CD40 and CD86)” value (dendritic cells; cisplatin study) was “no influence”.

For `COc1cccc2c1C(=O)c1c(O)c3c(c(O)c1C2=O)C[C@@](O)(C(=O)CO)C[C@@H]3O[C@H]1C[C@H](N)[C@H](O)[C@H](C)O1` [doxorubicin], the “CD8+ T cells in tumor tissues (infiltration)” value (MMTV/Neu mice tumors) was “some T cell infiltration”, the “cross presentation (H-2Kb-Ova) of BMDCs co-cultured with B16F10-Ova cells” value [3] was “increased the cross-presentation” and the “complete regression of the tumor” value (B16F10-Ova) was “not observed”. For the same compound, the “infiltration of CD8+ T cells into tumor tissues” value (B16F10-Ova) was “slight infiltration”, the “antigenic cross presentation (H-2Kb-Ova) in the dendritic cells” value (dendritic cells; [5]) was “did not significantly increase” and the “dendritic cell maturation (expression of CD40 and CD86)” value (dendritic cells; [5]) was “no effect”.

`O=S(=O)(c1cccc2cnccc12)N1CCCNCC1` [fasudil] was tested, and the “growth of cancer (size of the tumor)” value (CT26 cancer cells) was “inhibited the growth of cancer similarly to Y27632” and the “phagocytosis of BMDMs against cancer cells in immunogenic cell death induced by mitoxantrone” value ([1]; 30 μM, 1 hour, B16F10-Ova treated with 2.5 μM mitoxantrone, compared with control) was “significant increase”.

With `C[C@H]1CNCCCN1S(=O)(=O)c1cccc2cncc(F)c12` [ripasudil] the “CD40 and CD86 on dendritic cells of tumor draining lymph nodes” value (B16F10 cancer cells) was “No increased expression”, the “phagocytic activity of BMDMs against PDT-treated cancer cells” value ([1]; 30 μM, 1 hour, B16F10, co-cultivated 30 min) was “significantly increased” and the “phagocytic activity of BMDCs against PDT-treated cancer cells” value [4] was “significantly increased”.
